{"source": "patent US20230277486A1", "about": "“COMPOSITIONS FOR THE TREATMENT OF NON-ARTICULAR CARTILAGE-[…] CONDITIONS” (priority 2019, published 2023)", "type_in_all_cases": "cell-based", "key": {"[1]": {"tested_on": "Primary human osteoblasts", "experiment": "qPCR gene expression in osteoblast cultures exposed to PCA", "experimental": "(§1) Cells: Primary human osteoblasts were obtained from Cell Applications, San Diego, Calif.\n(§2) Cell culture: Osteoblasts were expanded in culture using the protocol provided by Cell Applications. Human Osteoblast Basal Media was supplemented with Human Osteoblast Growth Supplement (Cell Applications) containing 0.15 g/L calcium. Human Osteoblast Differentiation Media was purchased from Cell Applications, containing 0.20 g/L calcium.\n(§3) Treatment: Osteoblasts were cultured in Human Osteoblast Basal Media and exposed to Protocatechuic acid (PCA) for up to 12 days at concentrations ranging from 1 μmolar to 100 μM. Osteoblasts were cultured without any PCA as negative control. Osteoblasts were cultured without any PCA in osteogenic media (Human Osteoblast Differentiation Media) as positive control (osteogenic media induces osteogenesis in osteoblasts). Each experiment was conducted in triplicate. Media were changed every 3 days.\nGene expression: Pro-osteogenic and anti-osteogenic gene expression was measured using qPCR on mRNA extracted from osteoblast cultures. Gene expression was computed as fold-change relative to control group (osteoblasts cultured without any PCA)."}, "[2]": {"tested_on": "Primary human mesenchymal stem cells (MSC)", "experiment": "qPCR osteogenic gene expression in MSC cultures exposed to PCA", "conditions": "three cell lines, PCA 200 μM to 2000 μM, 14 or 21 days", "experimental": "(§4) Cells: Primary human mesenchymal stem cells (MSC) were obtained from RoosterBio Inc., Frederick, Md.; ATCC, Manassas, Va.; and Cell Applications, San Diego, Calif.\n(§5) Cell culture: MSC were expanded in culture, using the protocol provided by the respective suppliers, before being subjected to the experimental conditions.\n(§6) Treatment: MSC were cultured in supplier-provided culture media and exposed to Protocatechuic acid (PCA) for 14 or 21 days at concentrations ranging from 200 μM to 2000 μM (2 mM). MSC were cultured without any PCA as negative control. To serve as positive control, MSC were cultured without any PCA in osteogenic media (Human Osteoblast Differentiation Media, Cell Applications, Catalog number: 417D-250). Osteogenic media is commonly used to induce osteogenesis. Each experiment was conducted in triplicate. Media was changed twice a week.\nGene expression: Osteogenic gene expression was measured using qPCR on mRNA extracted from MSC cultures. Gene expression was computed as fold-change relative to the control group (MSC cultured without any PCA). MSC cultured in osteogenic media was used as positive control as this protocol is commonly used to induce osteogenesis."}, "[3]": {"tested_on": "Primary human mesenchymal stem cells (MSC)", "experiment": "Calcium deposition in MSC cultures, Alizarin red stain at 21 days", "conditions": "three cell lines, PCA 200 μM to 2000 μM, FIG. 8", "experimental": "as §4, §5, §6\nCalcium deposition: MSC cultures were tested for calcium deposition using Alizarin red stain at 21 days."}, "[4]": {"tested_on": "Primary human osteoblasts", "experiment": "Calcium deposition in osteoblast cultures, Alizarin red stain", "conditions": "PCA 1 μM to 100 μM, 12 days of culture", "experimental": "as §1, §2, §3\nCalcium deposition: Osteoblast cultures were tested for calcium deposition using Alizarin red stain."}}, "data": [{"smiles": "O=C(O)c1ccc(O)c(O)c1", "note": "[PCA, protocatechuic acid]", "values": [{"measurement": "IL-1β gene expression (anti-osteogenic gene)", "setting": "[1]; PCA 1 μM to 100 μM, FIG. 2", "result": "increasing"}, {"measurement": "IL-6 gene expression (anti-osteogenic gene)", "setting": "[1]; PCA 1 μM to 100 μM, FIG. 2", "result": "increasing"}, {"measurement": "MMP-1 gene expression (anti-osteogenic gene)", "setting": "[1]; PCA 1 μM to 100 μM, FIG. 2", "result": "suppressing"}, {"measurement": "TNF-α gene expression (anti-osteogenic gene)", "setting": "[1]; PCA 1 μM to 100 μM, FIG. 2", "result": "suppressing"}, {"measurement": "BMP-6 expression, dose dependence", "setting": "[1]; PCA 1 μM to 100 μM, FIG. 3", "result": "dose-dependent effect"}, {"measurement": "osteogenic gene expression (IBSP, SPP1, TNAP, RunX2)", "setting": "[1]; PCA 1 μM to 100 μM, up to 12 days, fold-change relative to control without PCA, FIG. 1", "result": "dose-dependent effect on all osteogenic genes tested"}, {"measurement": "expression of osteogenic genes versus positive control (osteogenic media)", "setting": "[1]; PCA 100 μmolar (highest dose)", "result": "even higher than that measured in the positive control"}, {"measurement": "BMP-6 expression relative to negative control", "setting": "[1]; PCA 100 μmolar, FIG. 3", "result": "greater than 2 fold"}, {"measurement": "RUNX2 expression", "setting": "[2]; FIG. 5", "result": "increased RUNX2 at most dose levels"}, {"measurement": "RUNX2 expression versus positive control (osteogenic media)", "setting": "[2]; FIG. 5", "result": "mostly higher than the positive control"}, {"measurement": "expression of alkaline phosphatase (TNAP)", "setting": "[2]; FIG. 6", "result": "increased the expression of alkaline phosphatase relative to negative control but not greater than the osteogenic conditions"}, {"measurement": "expression of bone sialoprotein (IBSP)", "setting": "[2]; FIG. 7", "result": "did not increase"}, {"measurement": "expression of osteopontin (SPP1)", "setting": "[2]; versus positive control (osteogenic media), FIG. 4", "result": "even higher than that measured in the positive control"}, {"measurement": "deposition of calcium", "setting": "[3]", "result": "visibly increased the deposition of calcium in one of the three cell lines"}, {"measurement": "calcium deposition", "setting": "[4]", "result": "did not increase deposition of calcium by detectable amounts"}]}]}
